This is an account of results in patent publication US11578073B2, “Xanthine analogs as potent anti-West Nile viral agents” (Southern Research Institute, priority 2019, dated 2023).

Series [1] is described as follows: cell viability assay (cytotoxicity) in HEK293 cells. In kind it is cell-based. As to conditions: human, read-out: CC50 (50% cytotoxicity concentration).
Series [2] relates to West Nile virus. The experiment in a line: anti-West Nile virus activity of xanthine analogs in HEK293 cells. It counts as cell-based. As to conditions: HEK293, read-out: EC90 (effective concentration to inhibit 90% of virus).

Each structure is given as a SMILES string. Some results are limits rather than exact numbers.

Consider `Cc1ccc(C)c(CN2CCN(c3nc4c(c(=O)[nH]c(=O)n4C)n3CC3CCCCC3)CC2)c1` [Compound 9, 7-(Cyclohexylmethyl)-8-(4-(2,5-dimethylbenzyl)piperazin-1-yl)-3-methyl-3,7-dihydro-1H-purine-2,6-dione], for which the CC50 in series [1] is > 40 µM. Also, the EC90 in series [2] was 4.4 µM.
For `Cc1ccc(C)c(CN2CCN(c3nc4c(c(=O)[nH]c(=O)n4C)n3Cc3ccccc3C#N)CC2)c1` [Compound 11, 2-((8-(4-(2,5-Dimethylbenzyl)piperazin-1-yl)-3-methyl-2,6-dioxo-1,2,3,6-tetrahydro-7H-purin-7-yl)methyl)benzonitrile], the CC50 in series [1] is > 30 µM. Moreover, in series [2], the EC90 is 6.9 µM.
As to `Cc1ccc(C)c(CN2CCN(c3nc4c(c(=O)[nH]c(=O)n4C)n3Cc3ccccc3C(F)(F)F)CC2)c1` [Compound 12, 8-(4-(2,5-Dimethylbenzyl)piperazin-1-yl)-3-methyl-7-(2-(trifluoromethyl)benzyl)-3,7-dihydro-1H-purine-2,6-dione], the CC50 in series [1] worked out at 12 µM. In addition, the EC90 in series [2] turned out to be 1.1 µM.
Consider `Cc1ccc(C)c(CN2CCN(c3nc4c(c(=O)[nH]c(=O)n4C)n3Cc3cccc(F)c3)CC2)c1` [Compound 13, 8-(4-(2,5-Dimethylbenzyl)piperazin-1-yl)-7-(3-fluorobenzyl)-3-methyl-3,7-dihydro-1H-purine-2,6-dione], for which the CC50 in series [1] was > 30 µM. Besides, the EC90 in series [2] was determined as 5.7 µM.
With `Cc1ccc(C)c(CN2CCN(c3nc4c(c(=O)[nH]c(=O)n4C)n3Cc3ccc(F)cc3)CC2)c1` [Compound 14, 8-(4-(2,5-Dimethylbenzyl)piperazin-1-yl)-7-(4-fluorobenzyl)-3-methyl-3,7-dihydro-1H-purine-2,6-dione], the CC50 in series [1] was > 30 µM. In series [2], the EC90 was determined as 6.1 µM.
The matching figures for `Cc1ccc(C)c(CN2CCN(c3nc4c(c(=O)[nH]c(=O)n4C)n3Cc3ccc(F)cc3F)CC2)c1` [Compound 15, 7-(2,4-Difluorobenzyl)-8-(4-(2,5-dimethylbenzyl)piperazin-1-yl)-3-methyl-3,7-dihydro-1H-purine-2,6-dione]: > 40 µM and > 10 µM.
The matching figures for `Cn1c(=O)[nH]c(=O)c2c1nc(N1CCN(Cc3ccc(C(C)(C)C)cc3)CC1)n2Cc1ccccc1C(F)(F)F` [Compound 16, 8-(4-(4-(tert-Butyl)benzyl)piperazin-1-yl)-3-methyl-7-(2-(trifluoromethyl)benzyl)-3,7-dihydro-1H-purine-2,6-dione]: 12.4 µM and 1.2 µM.
The matching figures for `Cn1c(=O)[nH]c(=O)c2c1nc(N1CCN(Cc3ccc(C(C)(C)C)cc3)CC1)n2Cc1ccccc1OC(F)(F)F` [Compound 17, 8-(4-(4-(tert-Butyl)benzyl)piperazin-1-yl)-3-methyl-7-(2-(trifluoromethoxy)benzyl)-3,7-dihydro-1H-purine-2,6-dione]: 10.2 µM and 1.2 µM.
As to `COC(=O)c1ccc(Cn2c(N3CCN(Cc4ccc(C(C)(C)C)cc4)CC3)nc3c2c(=O)[nH]c(=O)n3C)c(F)c1` [Compound 18, methyl 4-((8-(4-(4-(tert-butyl)benzyl)piperazin-1-yl)-3-methyl-2,6-dioxo-1,2,3,6-tetrahydro-7H-purin-7-yl)methyl)-3-fluorobenzoate], the CC50 in series [1] stood at 21.4 µM. Moreover, in series [2], the EC90 is 5.2 µM.
With `Cn1c(=O)[nH]c(=O)c2c1nc(N1CCN(Cc3ccc(C(C)(C)C)cc3)CC1)n2Cc1ccc(C(=O)O)cc1F` [Compound 19, 4-((8-(4-(4-(tert-butyl)benzyl)piperazin-1-yl)-3-methyl-2,6-dioxo-1,2,3,6-tetrahydro-7H-purin-7-yl)methyl)-3-fluorobenzoic Acid], the CC50 in series [1] was > 40 µM. In addition, the EC90 in series [2] was > 10 µM.
Consider `Cn1c(=O)[nH]c(=O)c2c1nc(N1CCN(Cc3ccc(C(C)(C)C)cc3)CC1)n2Cc1ccncc1F` [Compound 20, 8-(4-(4-(tert-Butyl)benzyl)piperazin-1-yl)-7-((3-fluoropyridin-4-yl)methyl)-3-methyl-3,7-dihydro-1H-purine-2,6-dione], for which the CC50 in series [1] was 22.1 µM. The EC90 in series [2] is 2.6 µM.
Turning to `Cn1c(=O)[nH]c(=O)c2c1nc(N1CCOCC1)n2Cc1ccccc1F` [Compound 22, 7-(2-Fluorobenzyl)-3-methyl-8-morpholino-3,7-dihydro-1H-purine-2,6-dione], the CC50 in series [1] was > 40 µM. The EC90 in series [2] is > 10 µM.
The matching figures for `Cc1ccc(C)c(N2CCN(c3nc4c(c(=O)[nH]c(=O)n4C)n3Cc3ccccc3F)CC2)c1` [Compound 26, 8-(4-(2,5-Dimethylphenyl)piperazin-1-yl)-7-(2-fluorobenzyl)-3-methyl-3,7-dihydro-1H-purine-2,6-dione]: 2.8 µM and 4.5 µM.
As to `Cc1cc(C)cc(N2CCN(c3nc4c(c(=O)[nH]c(=O)n4C)n3Cc3ccccc3F)CC2)c1` [Compound 27, 8-(4-(3,5-Dimethylphenyl)piperazin-1-yl)-7-(2-fluorobenzyl)-3-methyl-3,7-dihydro-1H-purine-2,6-dione], the CC50 in series [1] is > 30 µM. In addition, in series [2], the EC90 was 10 µM.
As to `Cn1c(=O)[nH]c(=O)c2c1nc(N1CCN(c3cccc(C(C)(C)C)c3)CC1)n2Cc1ccccc1F` [Compound 28, 8-(4-(3-(tert-butyl)phenyl)piperazin-1-yl)-7-(2-fluorobenzyl)-3-methyl-3,7-dihydro-1H-purine-2,6-dione], the CC50 in series [1] is > 40 µM. For the same compound, the EC90 in series [2] amounted to 10 µM.
As for `Cn1c(=O)[nH]c(=O)c2c1nc(N1CCN(c3ccc(C(F)(F)F)cc3)CC1)n2Cc1ccccc1F` [Compound 30, 7-(2-Fluorobenzyl)-3-methyl-8-(4-(4-(trifluoromethyl)phenyl)piperazin-1-yl)-3,7-dihydro-1H-purine-2,6-dione], in series [1], the CC50 came out at 12.9 µM. Further, the EC90 in series [2] is 6.5 µM.
The matching figures for `Cn1c(=O)[nH]c(=O)c2c1nc(N1CCN(Cc3ccc(C(F)(F)F)cc3)CC1)n2Cc1ccccc1F` [Compound 34, 7-(2-Fluorobenzyl)-3-methyl-8-(4-(4-(trifluoromethyl)benzyl)piperazin-1-yl)-3,7-dihydro-1H-purine-2,6-dione]: > 30 µM and 9.4 µM.
For `Cn1c(=O)[nH]c(=O)c2c1nc(N1CCN(Cc3ccc(F)cc3)CC1)n2Cc1ccccc1F` [Compound 35, 7-(2-Fluorobenzyl)-8-(4-(4-fluorobenzyl)piperazin-1-yl)-3-methyl-3,7-dihydro-1H-purine-2,6-dione], in that order: > 30 µM and 10.5 µM.
With `Cn1c(=O)[nH]c(=O)c2c1nc(N1CCN(Cc3ccc(C(C)(C)C)cc3)CC1)n2Cc1ccccc1F` [Compound 36, 8-(4-(4-(tert-butyl)benzyl)piperazin-1-yl)-7-(2-fluorobenzyl)-3-methyl-3,7-dihydro-1H-purine-2,6-dione], the CC50 in series [1] was > 30 µM. Besides, the EC90 in series [2] amounted to 0.87 µM.
For `Cn1c(=O)[nH]c(=O)c2c1nc(N1CCN(Cc3ccc(C(C)(C)C)cc3)C(C(=O)O)C1)n2Cc1ccccc1F` (stereo not shown) [Compound 37, 1-(4-(tert-butyl)benzyl)-4-(7-(2-fluorobenzyl)-3-methyl-2,6-dioxo-2,3,6,7-tetrahydro-1H-purin-8-yl)piperazine-2-carboxylic Acid], in that order: > 40 µM and > 10 µM.
